Measurements: patent publication US11872220B2, “Methods and compositions for treating B-cell malignancies” (Janssen Pharmaceutica NV, priority 2021, dated 2024)
“Also recorded” adds a separate entry of the source.

Assays:
[1] = tested on: NF-κB signaling (p-IκBα, Bcl-XL) in CLL cells; experiment: Western blot of p-IκBα and Bcl-XL in stimulated CLL cells; assay type: cell-based, human; details: 10 μM MALTi, 24 hours
Method: (§1) FIG. 1A is a bar graph showing the results of an experiment in which CLL cells were treated with the indicated drugs and concentrations and incubated for 24 hours. For the BCR stimulation, cells were supplemented with IL-4 and αIgM. […] Bars represent the mean±SEM. FIG. 1B is a bar graph showing the results of an experiment in which CLL cells were labeled with CellTrace Violet and cultured for 5 days on 3T40 supplemented with IL-21 or on 3T3 in combination with CpG, IL-2, IL-15, and IL-21 in combination with 10 μM MALTi. Proliferation was measured using flow cytometry based on CellTrace Violet signal (n=8). […] Afterwards, culture supernatant was collected and IL-6 (n=14) (FIG. 1C), IL-10 (n=13) (FIG. 1D), and TNFα (n=14) (FIG. 1E) levels were measured using commercial ELISA kits. […] Protein lysates were probed for p-IκBα, Bcl-XL, and actin as loading control.
Western blot analysis was performed using standard techniques. […]
(§2) CLL PBMCs were either co-cultured with 3T40 fibroblasts, stimulated with soluble or immobilized anti-IgM (SouthernBiotech, Birmingham, AL, USA) or stimulated with CpG ODN2006 (1 μg/mL) and incubated for 24 hours. Culture supernatant was collected and IL-6, IL-10, and TNFα levels were measured by commercial ELISA kits (Diaclone, Besancon, France). […] Samples were measured on a FACS Canto II cytometer (BD Biosciences, San Jose, CA, USA) and analyzed using FlowJo software.

CLL cells [2] = experiment: CLL cell viability, flow cytometry with DiOC6 and TO-PRO3; assay type: cell-based, human; details: 24 hours, DiOC6 and TO-PRO3 staining
Method: as §1

[3] = tested on: T cell subsets in CLL and healthy donor PBMCs; experiment: T cell differentiation and subset distribution, flow cytometry; assay type: cell-based, human
Method: (§3) Afterwards, T cell subsets were measured using flow cytometry as described. […] Afterwards, T cell subsets were measured using flow cytometry based on CD27 and CD45RA. Naïve T cells were gated as CD27^+/CD45RA^+, central memory T cells were gated as CD27^+/CD45RA^−, memory T cells were gated as CD27^−/CD45RA^−, and terminally differentiated effector memory cells re-expressing CD45RA T cells were gated as CD27^−/CD45RA^+. […] Afterwards, regulatory T cells were measured using flow cytometry and gated as CD4^+/CD25^+/FoxP3^+. Bars represent the mean±SEM, *p<0.05, ***p<0.001 (paired sample t-test).
(§4) CLL or healthy donor PBMCs were labeled with CFSE or CTV and stimulated with anti-CD3 (clone 1XE) and anti-CD28 (clone 15E8) antibodies for 4 days. Culture supernatant was collected and IFNγ (ThermoFisher) and TNFα (Diaclone) levels were measured by commercial ELISA kits. The activation/proliferation panel consisted of the following antibodies: CD3-μF700 (eBioscience), CD4-PE-Cy7, CD8-PerCpCy5.5, CD25-APC (BD Bioscience). The differentiation panel consisted of the following antibodies: CD27/CCR7-PerCP-eFluor710 or (eBioscience), CD4-PE-Cy7, CD8-BV786, CD25-PE, CD45RA-BV650, and FoxP3-APC (BD Biosciences). […] Samples were measured on a FACS Canto II cytometer (BD Biosciences, San Jose, CA, USA) and analyzed using FlowJo software.

[4] = tested on: Bcl-2 family members Bcl-XL, Mcl-1 and Bcl-2 in CLL cells; experiment: Expression of Bcl-XL, Mcl-1 and Bcl-2 in stimulated CLL cells, intracellular flow cytometry; assay type: cell-based, human; details: CD40, BCR or TLR9 stimulation, 10 μM MALTi, 24 hours
Method: Afterwards, expression of Bcl-XL (n=13) (FIG. 2A).
CLL PBMCs were either co-cultured with 3T40 fibroblasts, stimulated with soluble or immobilized anti-IgM (SouthernBiotech, Birmingham, AL, USA) or stimulated with CpG ODN2006 (1 μg/mL) and incubated for 24 hours. Culture supernatant was collected and IL-6, IL-10, and TNFα levels were measured by commercial ELISA kits (Diaclone, Besancon, France). Intracellular flow cytometry staining was performed using Cytofix/Cytoperm according to manufacturer's protocol (BD Biosciences). Cells were stained with the following antibodies: anti-Bcl-XL-FITC, Mcl-1-PE, and Bcl-2-BV421 (BD Biosciences). Samples were measured on a FACS Canto II cytometer (BD Biosciences, San Jose, CA, USA) and analyzed using FlowJo software.

CLL cells [5] = details: CD40-, BCR- or TLR9-stimulated, 10 μM MALTi, BH3 mimetic for additional 24 hours
Method: FIGS. 2A-2C are bar graphs showing the results of experiments in which CLL cells were cultured for 24 hours on 3T40, stimulated with IL-4 and αIgM (soluble or immobilized to beads) or stimulated with CpG, and incubated for 24 hours in combination with 10 μM MALTi. […] FIGS. 2D-2I) are graphs showing the results of experiments in which, in parallel, CD40-stimulated (n=9) (FIGS. 2D-2E), BCR-stimulated (n=8) (FIGS. 2F-2G), and TLR9-stimulated (n=6) (FIGS. 2H-2I) cells were with venetoclax or S63 for an additional 24 hours. Viability was measured using flow cytometry using DiOC6 and TO-PRO3 viability staining. […]
Lymphocytes of CLL patients were co-cultured with NIH3T3 fibroblasts stably transfected with human CD40L (3T40) or negative control (3T3) as described before (Urashima et al., “CD40 Ligand Triggered Interleukin-6 Secretion in Multiple Myeloma,” Blood 85(7):1903-1912 (1995) and Schultze et al., “CD40-Activated Human B Cells: An Alternative Source of Highly Efficient Antigen Presenting Cells to Generate Autologous Antigen-Specific T Cells for Adoptive Immunotherapy,” J. Clin. Invest. 100(11):2757-2765 (1997). After 24 hours, cells were detached and incubated with or without drugs for an additional 24 hours. CLL cell viability was measured by flow cytometry using DioC6 and TO-PRO-3 viability dyes. […]

[6] = tested on: IL-10, TNF-α, IL12p70, IL-6 in serum; experiment: Serum cytokine secretion in OCI-LY3 tumor bearing mice, Mesoscale assay; assay type: in vivo, NOD/SCID mice
Method: Tumor and Serum Samples Collection on Study Termination. Whole blood samples were collected from all groups at 6 hours post the final dose. Serum samples were isolated from all groups were collected and stored at −80° C. Tumor tissues were collected from all of groups when study was terminated, and split into 2 pieces, take weights, processed to snap frozen and stored in 2 separated tubes.
Tumor and Serum Samples Collection on Study Termination. NF-κB signaling regulates the secretion of multiple cytokines, including interleukin (IL)-6 and IL-10. Secretion of the cytokines (IL-10, TNF-α, IL12p70, and IL-6) in serum samples of OCI-LY3 animals was measured by using a Mesoscale assay (MSD). For in vivo efficacy study, serum samples were isolated from all tumor bearing mice at 6 hours post the final dose of the MALT1 inhibitor of Formula I. For in vivo Pharmacodynamic (PD) experiment, serum samples were isolated from all tumor bearing mice (tumor volume around 700 mm3) at 8 hours post treatment with the MALT1 inhibitor of Formula I (BID dosing). Serum samples were transferred to an MSD plate (V-Plex Proinflammation Panel 1 [human] kit) and incubated for 2 hours at RT followed by a 2-hour incubation with cytokine antibody solution. Plates were read on a SECTOR imager.

CLL cells [7] = experiment: Proliferation of CLL cells, CellTrace Violet; assay type: cell-based, human; details: 10 μM MALTi, 5 days; CD40 stimulation + IL-21 or CpG + IL-2, IL-15, IL-21
Method: as §1
CLL PBMCs were labeled with CellTrace Violet and either co-cultured with 3T40 fibroblasts and supplemented with IL-21 (25 ng/mL) or stimulated with CpG ODN2006 (1 μg/mL) and supplemented with IL-2, IL-15, and IL-21 (25 ng/mL). CLL cells were cultured for 5 days. […] Samples were measured on a FACS Canto II cytometer (BD Biosciences, San Jose, CA, USA) and proliferation was analyzed using FlowJo software.

OCI-LY3 DLBCL CDX model = experiment: In vivo efficacy in OCI-LY3 model, tumor growth inhibition; design: species or system NOD/SCID mice; details: for tumor growth inhibition (TGI): oral, 12 days post treatment; for in vivo growth of OCI-LY3 DLBCL CDX model (efficacy in words): OCI-LY3 model (CARD11 mut)
[8] = tested on: CLL-derived and healthy T cells; experiment: T cell stimulation with anti-CD3/CD28: activation, proliferation, degranulation, cytokine secretion; assay type: cell-based, human
Method: Afterwards, cells were measured using flow cytometry. FIG. 3A are bar graphs showing T cell activation measured based on CD25. […] FIG. 3C are bar graphs showing T cell proliferation measured based on CellTrace Violet signal. FIG. 3D are bar graphs showing T cell degranulation measured in CLL (n=13) and healthy (n=3) T cells based on CD107a. After incubation, culture supernatant was collected and IFNγ (n=12) and TNFα (n=9) levels were measured using commercial ELISA kits (FIG. 3E).
CLL or healthy donor PBMCs were labeled with CFSE or CTV and stimulated with anti-CD3 (clone 1XE) and anti-CD28 (clone 15E8) antibodies for 4 days. Culture supernatant was collected and IFNγ (ThermoFisher) and TNFα (Diaclone) levels were measured by commercial ELISA kits. The activation/proliferation panel consisted of the following antibodies: CD3-μF700 (eBioscience), CD4-PE-Cy7, CD8-PerCpCy5.5, CD25-APC (BD Bioscience). The differentiation panel consisted of the following antibodies: CD27/CCR7-PerCP-eFluor710 or (eBioscience), CD4-PE-Cy7, CD8-BV786, CD25-PE, CD45RA-BV650, and FoxP3-APC (BD Biosciences). The cytotoxicity panel consisted of the following antibodies: CD107a-FITC (eBioscience), CD4-PerCPeF710, CD8-BV786, CD25-PE, and PD1-PE-Cy7 (BD Biosciences). Samples were measured on a FACS Canto II cytometer (BD Biosciences, San Jose, CA, USA) and analyzed using FlowJo software.

[9] = tested on: NF-κB-mediated cytokine secretion in CLL cells; experiment: Cytokine secretion (IL-6, IL-10, TNFα) of stimulated CLL cells, ELISA; assay type: cell-based, human; details: CD40, BCR and TLR9 stimulation, 24 hours
Method: as §1, §2

[10] = tested on: RelB and Bcl10 cleavage in OCI-Ly3 cell line; experiment: Activity of MALT1 inhibitor in OCI-Ly3 cell line, inhibition of RelB and Bcl10 cleavage by Western blotting; assay type: cell-based; details: 24 hours, with proteasome inhibitor MG132, Western blot
Method: OCI-Ly3 cell lines were cultured for 24 hours in combination with proteasome inhibitor MG132 and indicated concentrations of MALTi. Protein lysates were probed for RelB, Bcl10 and actin or vinculin as loading controls.
Western blot analysis was performed using standard techniques. Membranes were probed with the following antibodies: anti-RelB, p-IκBα, Bcl-XL (Cell Signaling), Bcl10 (Abcam), and actin (Santa Cruz Biotechnology). Odyssey Imager (Li-Cor Biosciences) was used as a detection method according to the manufacturer's protocol.
To test MALT1 inhibition in the context of CLL, we investigated CLL functionality under divergent microenvironmental stimulations. […] Proliferation of CLL cells was induced either via CD40 stimulation in combination with IL-21, or by stimulation with CpG in combination with IL-2, IL-15 and IL-21 ([…]). […] Because of the central role of MALT1 in NF-κB signaling, we investigated known targets of NF-κB such as IL-6, IL-10 and TNFα. Both CD40, BCR and TLR9 stimulation induced cytokine secretion of IL-6, IL-10 and TNFα (FIG. 1C-E). […] The role of MALT1 in the BCR and TLR9 pathway has previously been described, but its role in the CD40 pathway is a new observation.

[11] = tested on: CD4+/CD25+/FoxP3+ regulatory T cells; experiment: Regulatory T cell population in unstimulated PBMCs, flow cytometry; assay type: cell-based, human; details: unstimulated CLL and healthy donor PBMCs, 4 days
Method: as §3, §4

SMILES: O=C(Nc1ccnc(C(F)(F)F)c1)c1cnn(-c2cccc3c(=O)[nH]ccc23)c1C(F)(F)F [MALT1 inhibitor of Formula I, 1-(1-oxo-1,2-dihydroisoquinolin-5-yl)-5-(trifluoromethyl)-N-[2-(trifluoromethyl)pyridin-4-yl]-1H-pyrazole-4-carboxamide]
- Bcl-XL expression, Western blot ([1]; BCR stimulation with soluble or immobilized anti-IgM or TLR9 stimulation via CpG): inhibition of Bcl-XL expression was also observed
- p-IκBα and Bcl-XL, Western blot ([1]; CD40-stimulated (3T40) CLL cells): a decrease in p-IκBα and the NF-κB target Bcl-XL
- direct cell death in CLL cells (viability) (CLL cells [2]): did not induce direct cell death
- T cell subset distribution (differentiation) ([3]; stimulated with anti-CD3/CD28, 4 days, increasing concentrations): reverted the T cell subset distribution back to the phenotype seen in unstimulated cells
- T cell subset distribution ([3]; unstimulated cells, 4 days): did not affect T cell subset distribution
- expression of Bcl-XL, flow cytometry [4]: inhibited
- expression of Mcl-1 and Bcl-2, flow cytometry [4]: not significantly affected
- sensitivity of stimulated CLL cells to venetoclax and S63 with concurrent MALT1 inhibition (CLL cells [5]): a shift towards venetoclax and S63 sensitivity in all these conditions
- IL-10, TNF-α, and IL12p70 secretion levels in serum ([6]; 6 hours post final dose): decrease IL-10, TNF-α, and IL12p70 secretion levels; also recorded: downregulate IL-10, TNF-α and IL12p70 secretion
- proliferation of CLL cells (CLL cells [7]): reduced both types of proliferation but did not fully block the proliferation
- tumor growth inhibition (TGI) (OCI-LY3 DLBCL CDX model; 30 mg/kg BID): 41.31%
- TGI (OCI-LY3 DLBCL CDX model; 30 mg/kg, BID as printed, (second line of Table 4)): 69.92%
- TGI (OCI-LY3 DLBCL CDX model; 30 mg/kg, BID, (first line of Table 4)): 41.31%
- tumor growth inhibition (TGI) (OCI-LY3 DLBCL CDX model; 100 mg/kg BID): 69.92%
- in vivo growth of OCI-LY3 DLBCL CDX model (efficacy in words) (OCI-LY3 DLBCL CDX model): moderately inhibits in vivo growth
- CD107a (LAMP-1) expression, T cell degranulation ([8]; anti-CD3/CD28, 4 days): reduced
- IFNγ and TNFα cytokine secretion ([8]; anti-CD3/CD28, 4 days, ELISA): significantly inhibited
- concentrations at which in vitro T cell activation is impaired ([8]; anti-CD3/CD28 stimulated T cells): > 1 µM
- T cell activation and proliferation (CD25, PD-1, CellTrace Violet) ([8]; soluble anti-CD3/CD28, 4 days, CD4 and CD8 T cells, CLL and healthy donors): significantly reduced
- NF-κB-mediated cytokine secretion (IL-6, IL-10, TNFα) [9]: decreased NF-κB-mediated cytokine secretion in all conditions and was most effective in CD40-stimulated cells
- inhibition of RelB and Bcl10 cleavage [10]: confirmed activity
- CD4+/CD25+/FoxP3+ T cells [11]: specific significant decrease

SMILES: CC1(C)CCC(CN2CCN(c3ccc(C(=O)NS(=O)(=O)c4ccc(NCC5CCOCC5)c([N+](=O)[O-])c4)c(Oc4cnc5[nH]ccc5c4)c3)CC2)=C(c2ccc(Cl)cc2)C1 [Venetoclax, 4-[4-[[2-(4-chlorophenyl)-4,4-dimethylcyclohexen-1-yl]methyl]piperazin-1-yl]-N-[3-nitro-4-(oxan-4-ylmethylamino)phenyl]sulfonyl-2-(1H-pyrrolo[2,3-b]pyridin-5-yloxy)benzamide, reference compound]
- cytokine secretion levels in serum (IL-10, TNFα, IL12p70, IL6) ([6]; monotherapy): didn't show effect
- tumor growth inhibition (TGI) (OCI-LY3 DLBCL CDX model; 40 mg/kg QD): 0.98%
- TGI (OCI-LY3 DLBCL CDX model; 40 mg/kg, QD): 0.98%
- in vivo growth of OCI-LY3 DLBCL CDX model (efficacy in words) (OCI-LY3 DLBCL CDX model): did not show any efficacy
